Measured values published in patent US9994554B2, “Barbiturate and thiobarbiturate compounds for use in cancer therapy” (NUHOPE, LLC, priority 2011, dated 2018).
Several values for one entry are separate records, joined by “and”; a condition that tells them apart may be missing. Identical values can stand only once.

What was measured:
A549 cells = test: pXC50 on A549 cells (later tests); type: cell-based
BREC = test: Cytotoxicity, bovine retinal endothelial cells; type: cell-based
Experimental: Bovine retinal endothelial cells (BRECs) were isolated and processed according to a previously published procedure (49, 50). In brief, BREC was grown in MCDB-131 media (Sigma, St) supplemented with 10% FBS, 10 ng/mL EGF, 0.2 mg/mL ENDO GRO (VEC Technologies, Inc.), 0.09 mg/ml heparin, and antibiotic/antimycotic (Invitrogen).

human topoisomerase I = human topoisomerase I (Homo sapiens, UniProt P11387); test: Supercoiled pBR322 DNA relaxation assay; type: biochemical; details: concentrations as high as 50 μg/ml
From the text: To determine whether CC-I is a specific inhibitor of topoisomerase I or IIα, the ability of CC-I to inhibit topoisomerases I and IIα activity was examined using a supercoiled DNA relaxation assay.

U87-MG = test: cells
Experimental: Human neuroblastoma cell lines were cultured in Dulbecco's Modified Eagle Medium (DMEM)/F12 media. Human glioma cells were ordered from American Type Culture Collection (ATCC, Manassas, Va.), and maintained in DMEM with 4×10^−3M L-glutamine, 100 U/ml penicillin, 100 μg/ml streptomycin, and 10% fetal bovine serum (FBS). All experiments were performed at 37° C. in 5% CO2 atmosphere under cell culture conditions. Prior to γ-radiation or exposure to chemotherapeutic agents, the glioma cells were plated at a density of 156 to 8,000 cells per well in 96 well plates to account for differences in growth rates, and to obtain similar cell densities for the experimental manipulations, and cultured overnight. Then cells received different dosages of γ-radiation from a ^60Co source GammaCell 220 (Nordion International Inc, Ontario, Canada) or chemotherapeutic agents for another 2-6 days. Cell cytotoxicity assay was determined by MTS [3-(4,5-dimethylthiazol-2-yl)-5-(3-carboxymethoxyphenyl)-2-(4-sulfophenyl)-2H-tetrazolium, inner salt] Cell Proliferation Assay (Promega, Madison, Wis.) or sulforhodamine B (SRB) assay at the end of the exposure period (47, 48).
Chemotype moiety compounds of CC-I were also tested on the Temodar-resistant CCF-STTG1 and Temodar®-sensitive U87-MG cell lines. The glioma cell culture and treatment is as described above.
The human glioma CCF-STTG1 cell lines were plated at a density of 5,000 cells per well in 96 well plates under standard DMEM cell culture conditions and then exposed to different concentrations of CC-I, merbarone, or ICRF-193 for 5 days. Merbarone and ICRF-193 are both topoisomerase II inhibitors (55, 56).

topoisomerase IIα = topoisomerase IIα (Homo sapiens, UniProt P11388); test: kDNA decatenation assay; type: biochemical
From the text: To assess whether CC-I is a human topoisomerase IIα inhibitor, we determined the ability of CC-I to inhibit topoisomerase IIα activity using a kDNA decatenation assay.

[1] = system: U87-MG or CCF-STTG1 glioma cells; test: Intracranial orthotopic xenograft brain tumor model; details: 25 mg/kg i.p. once a week for 7 weeks
Experimental: The effect of CC-I in an intracranial, orthotopic xenograft brain tumor model was analysed. The caudate putamen region of female, athymic nude mice was injected with 10^6 human U87-MG (Temodar®-sensitive) or CCF-STTG1 (Temodar®-resistant) glioma cells in a volume of 10 μl. At one week post-injection, tumor volume was measured using Ti weighted MRI contrast (7T MR imaging system). Thereafter, CC-I was injected intraperitoneally, once a week for 7 weeks at a concentration of 25 mg/kg body weight. Tumor size was measured weekly. […] Liver and kidney toxicity (total bilirubin, blood urea nitrogen (BUN), creatine, aspartate aminotransferase (SGOT/AST), alanine aminotransferase (SGPT/ALT), and alkaline phosphatase) were also determined using an automated chemistry analyzer machine (Roche Cobase MIRA) and kits manufactured by Thermo Electron.

MCF10A = test: Cytotoxicity, MCF10A; type: cell-based, human; details: immortalized, non-transformed mammary epithelial cell line
U251 = test: Cytotoxicity (MTS or SRB assay), U251; type: cell-based; details: human astrocytoma or glioblastoma cell line
Experimental: (§1) Human neuroblastoma cell lines were cultured in Dulbecco's Modified Eagle Medium (DMEM)/F12 media. Human glioma cells were ordered from American Type Culture Collection (ATCC, Manassas, Va.), and maintained in DMEM with 4×10^−3M L-glutamine, 100 U/ml penicillin, 100 μg/ml streptomycin, and 10% fetal bovine serum (FBS). All experiments were performed at 37° C. in 5% CO2 atmosphere under cell culture conditions. Prior to γ-radiation or exposure to chemotherapeutic agents, the glioma cells were plated at a density of 156 to 8,000 cells per well in 96 well plates to account for differences in growth rates, and to obtain similar cell densities for the experimental manipulations, and cultured overnight. […] Cell cytotoxicity assay was determined by MTS [3-(4,5-dimethylthiazol-2-yl)-5-(3-carboxymethoxyphenyl)-2-(4-sulfophenyl)-2H-tetrazolium, inner salt] Cell Proliferation Assay (Promega, Madison, Wis.) or sulforhodamine B (SRB) assay at the end of the exposure period (47, 48).

SW1088 = test: Cytotoxicity (MTS or SRB assay), SW1088; type: cell-based, human
Experimental: Human glioma cells were ordered from American Type Culture Collection (ATCC, Manassas, Va.), and maintained in DMEM with 4×10^−3M L-glutamine, 100 U/ml penicillin, 100 μg/ml streptomycin, and 10% fetal bovine serum (FBS). All experiments were performed at 37° C. in 5% CO2 atmosphere under cell culture conditions. […] Then cells received different dosages of γ-radiation from a ^60Co source GammaCell 220 (Nordion International Inc, Ontario, Canada) or chemotherapeutic agents for another 2-6 days. Cell cytotoxicity assay was determined by MTS [3-(4,5-dimethylthiazol-2-yl)-5-(3-carboxymethoxyphenyl)-2-(4-sulfophenyl)-2H-tetrazolium, inner salt] Cell Proliferation Assay (Promega, Madison, Wis.) or sulforhodamine B (SRB) assay at the end of the exposure period (47, 48).

[2] = system: C282Y HFE variant expressing neuroblastoma SH-SY5Y cells; test: SCID mouse subcutaneous neuroblastoma tumor model; details: 25 mg/kg i.p. once a week for 7 weeks
Experimental: To determine the effect of CC-I on neuroblastoma, an in vivo subcutaneous tumor model in SCID mice was examined. One month old, female SCID mice were injected subcutaneously in the flank region with a Temodar®- and radiation-resistant C282Y HFE variant expressing neuroblastoma SH-SY5Y cells. After the tumor attained a volume of 32 mm^3, CC-I (25 mg/kg) was injected intraperitoneally once a week for 7 weeks.

OVCAR-3 = test: Cytotoxicity, ovarian cancer cells; type: cell-based; details: human ovarian carcinoma cell line
Experimental: To assess the effect of CC-I on the ovarian cancer cells, the cells were cultured overnight at a density of 5,000 to 10,000 cells per well in 96 well plates. Then the cells were treated with different concentrations of CC-I (Formula IV) or Formula V for another 3-6 days before cytotoxicity assay using MTS or SRB assay. The IC50 or LD50, 50% inhibition or lethal dose, of compounds is also determined using statistical software (GraphPad) as a general indicator of toxicity.

NF215 = test: Cytotoxicity, NF215 neurofibroma cells; type: cell-based, human
Experimental: Cells of established neurofibroma cell lines were plated at a density of 2000-4000 cells per well in 96 well plates under standard cell culture conditions (54) and then exposed to CC-I for 2 days.

SVGp12 = test: Cytotoxicity, SVGp12; type: cell-based; details: SV40 transformed human astrocyte cell line
Experimental: as §1

WT/SH-SY5Y = test: Cytotoxicity, WT/SH-SY5Y neuroblastoma; type: cell-based; details: wild type HFE transfected human neuroblastoma SH-SY5Y
Experimental: as §1

human topoisomerase I, sequence (P11387 whole entry): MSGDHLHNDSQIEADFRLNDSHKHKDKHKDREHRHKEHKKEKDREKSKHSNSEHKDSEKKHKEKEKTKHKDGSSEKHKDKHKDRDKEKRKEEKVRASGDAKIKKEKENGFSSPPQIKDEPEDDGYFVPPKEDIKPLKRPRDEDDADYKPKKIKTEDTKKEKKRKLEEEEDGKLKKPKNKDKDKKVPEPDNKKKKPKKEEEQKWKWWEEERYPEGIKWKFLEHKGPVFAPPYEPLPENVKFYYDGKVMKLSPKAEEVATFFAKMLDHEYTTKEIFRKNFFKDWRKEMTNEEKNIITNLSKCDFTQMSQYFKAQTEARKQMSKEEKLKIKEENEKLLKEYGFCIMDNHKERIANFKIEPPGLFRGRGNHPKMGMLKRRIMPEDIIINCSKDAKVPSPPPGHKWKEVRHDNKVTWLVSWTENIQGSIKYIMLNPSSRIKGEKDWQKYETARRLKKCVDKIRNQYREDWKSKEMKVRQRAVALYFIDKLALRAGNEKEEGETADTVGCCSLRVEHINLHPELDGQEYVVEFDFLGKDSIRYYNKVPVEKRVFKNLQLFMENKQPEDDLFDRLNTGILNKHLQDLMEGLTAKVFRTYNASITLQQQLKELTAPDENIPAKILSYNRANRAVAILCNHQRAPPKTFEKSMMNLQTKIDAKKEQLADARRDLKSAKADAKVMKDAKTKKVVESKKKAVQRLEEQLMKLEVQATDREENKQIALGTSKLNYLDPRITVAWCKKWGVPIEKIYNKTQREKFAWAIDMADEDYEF
topoisomerase IIα, sequence (P11388 whole entry): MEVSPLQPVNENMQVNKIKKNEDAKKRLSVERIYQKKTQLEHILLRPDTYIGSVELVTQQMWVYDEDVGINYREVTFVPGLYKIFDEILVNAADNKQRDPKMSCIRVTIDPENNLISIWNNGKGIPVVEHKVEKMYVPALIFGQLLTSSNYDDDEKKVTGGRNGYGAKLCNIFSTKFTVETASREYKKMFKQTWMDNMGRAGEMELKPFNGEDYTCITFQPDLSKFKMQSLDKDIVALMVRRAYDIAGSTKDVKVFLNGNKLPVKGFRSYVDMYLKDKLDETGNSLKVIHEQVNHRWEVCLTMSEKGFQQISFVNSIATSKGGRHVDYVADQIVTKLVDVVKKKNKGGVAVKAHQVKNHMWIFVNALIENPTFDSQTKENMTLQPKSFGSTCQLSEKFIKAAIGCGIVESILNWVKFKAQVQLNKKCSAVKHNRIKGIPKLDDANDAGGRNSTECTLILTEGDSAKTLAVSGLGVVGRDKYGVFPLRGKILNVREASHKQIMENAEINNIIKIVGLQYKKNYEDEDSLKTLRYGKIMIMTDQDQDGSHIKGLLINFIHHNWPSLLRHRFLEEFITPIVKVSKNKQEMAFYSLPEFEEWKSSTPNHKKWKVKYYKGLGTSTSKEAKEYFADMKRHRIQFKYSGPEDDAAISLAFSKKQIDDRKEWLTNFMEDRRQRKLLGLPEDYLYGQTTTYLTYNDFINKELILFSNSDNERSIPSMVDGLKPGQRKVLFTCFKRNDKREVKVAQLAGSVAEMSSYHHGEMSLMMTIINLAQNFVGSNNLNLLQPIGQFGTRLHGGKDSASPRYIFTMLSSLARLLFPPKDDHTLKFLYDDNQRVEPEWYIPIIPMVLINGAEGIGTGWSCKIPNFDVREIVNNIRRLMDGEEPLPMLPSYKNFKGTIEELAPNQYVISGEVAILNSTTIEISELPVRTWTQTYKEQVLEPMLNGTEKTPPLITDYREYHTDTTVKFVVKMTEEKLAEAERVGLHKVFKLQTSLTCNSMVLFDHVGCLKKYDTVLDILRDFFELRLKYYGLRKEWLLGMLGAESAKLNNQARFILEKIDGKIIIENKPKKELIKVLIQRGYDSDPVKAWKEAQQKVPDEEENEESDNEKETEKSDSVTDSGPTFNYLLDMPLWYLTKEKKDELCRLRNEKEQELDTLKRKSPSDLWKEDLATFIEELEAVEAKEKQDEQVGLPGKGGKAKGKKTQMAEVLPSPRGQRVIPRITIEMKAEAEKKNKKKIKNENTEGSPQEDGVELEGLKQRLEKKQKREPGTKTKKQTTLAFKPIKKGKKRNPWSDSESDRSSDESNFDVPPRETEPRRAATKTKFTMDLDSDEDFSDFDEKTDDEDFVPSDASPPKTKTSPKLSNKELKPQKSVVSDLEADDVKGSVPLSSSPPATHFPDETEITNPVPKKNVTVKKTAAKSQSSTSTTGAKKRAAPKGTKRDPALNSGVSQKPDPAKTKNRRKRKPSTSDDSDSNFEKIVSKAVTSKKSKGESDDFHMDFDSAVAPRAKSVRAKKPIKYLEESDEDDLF

Q: Which pXC50 (A549 cells) does the source give for `CCN1C(=O)C(=C/C=C/c2ccco2)C(=O)NC1=S` [CC-I] here?
A: 4.5

Q: What about the IC50 (BREC; bovine retinal endothelial cell) of the same molecule?
A: 46.9 µM

Q: And the “toxicity to bovine retinal endothelial cells (BREC)” value (BREC; model for the blood-brain-barrier)?
A: not toxic

Q: What about the “effect on topoisomerase I activity” value (human topoisomerase I) of the same molecule?
A: no effect

Q: And the “cytotoxicity compared with merbarone or ICRF-193” value (U87-MG; U87-MG, 5 days)?
A: more cytotoxic

Q: What about the IC50 (U87-MG; read-out: IC50 (μM) U87-MG, human astrocytoma or glioblastoma cell line) of the same molecule?
A: 3.9 µM

Q: And the “concentration completely inhibiting topoisomerase IIα catalyzed kDNA decatenation” value (topoisomerase IIα)?
A: greater than 6 μg/ml

Q: And the “body weight of mice” value [1]?
A: not affected

Q: What about the “liver and kidney toxicity (blood chemistry)” value [1] of the same molecule?
A: no liver or kidney toxicity

Q: And the “survival of tumor-bearing mice” value [1]?
A: extended survival

Q: What about the intracranial tumor growth ([1]; Temodar-resistant and -sensitive tumors) of the same molecule?
A: inhibited tumor growth

Q: What about the IC50 (MCF10A) of the same molecule?
A: 6.5 µM

Q: What about the IC50 (U251) of the same molecule?
A: 3.8 µM

Q: What about the LD50 (SW1088; SW-1088 astrocytoma cells) of the same molecule?
A: ≈ 0.5 μg/ml and ~1.7 μM

Q: What about the IC50 (SW1088; human astrocytoma or glioblastoma cell line, read-out: IC50 (μM) SW1088) of the same molecule?
A: 1.7 µM

Q: What about the body weight [2] of the same molecule?
A: unaffected

Q: What about the “liver or kidney toxicity” value [2] of the same molecule?
A: No liver or kidney toxicity

Q: What about the tumor growth ([2]; SCID mice) of the same molecule?
A: completely inhibited tumor growth

Q: And the IC50 (OVCAR-3)?
A: 3.5 µM

Q: And the LD50 (NF215; NF215 neurofibroma cells, 2 days exposure)?
A: 1.4 µg/mL

Q: And the IC50 (NF215; human neurofibroma cell line)?
A: 5.1 µM

Q: What about the IC50 (SVGp12) of the same molecule?
A: 4.2 µM

Q: What about the IC50 (WT/SH-SY5Y) of the same molecule?
A: 3.3 µM
